Among the data in ChEMBL document CHEMBL3856262, “A diastereoselective synthesis of tetrahydro- and dihydro-pyrido[2,3-c]coumarin derivatives via a one-pot three-component Povarov reaction catalyzed by bismuth(III) chloride” (2016) are MIC and Activity values, retold here.

Each structure is given as a SMILES string. Converted amounts (≈) assume the structure as drawn.

Holding throughout (assay type): functional
The test system of one assay is Escherichia coli. The assay can be described thus: Antimicrobial activity against Escherichia coli MTCC 739 incubated for 24 hrs by well diffusion assay. To be noted: MTCC 739, 24 h.
For another assay, the system named is Pseudomonas aeruginosa. Put plainly: Antimicrobial activity against Pseudomonas aeruginosa MTCC 2453 incubated for 24 hrs by well diffusion assay. To be noted: MTCC 2453, 24 h.
The next assay relates to Micrococcus luteus. The assay can be described thus: Antimicrobial activity against Micrococcus luteus MTCC 2470 incubated for 24 hrs by well diffusion assay. To be noted: MTCC 2470, 24 h.
The test system of another assay is Raoultella planticola. Put plainly: Antimicrobial activity against Klebsiella planticola MTCC 530 incubated for 24 hrs by well diffusion assay. To be noted: MTCC 530, 24 h.
A further assay has as its system Bacillus subtilis. The assay can be described thus: Antimicrobial activity against Bacillus subtilis MTCC 121 incubated for 24 hrs by well diffusion assay. The following applies: MTCC 121, 24 h.
The subject of assay [1] is Staphylococcus aureus. Put plainly: Antimicrobial activity against Staphylococcus aureus MTCC 96 incubated for 24 hrs by well diffusion assay. The following applies: MTCC 96, 24 h.
Assay [2] deals with Staphylococcus aureus. Put plainly: Antimicrobial activity against Staphylococcus aureus MLS-16 […] incubated for 24 hrs by well diffusion assay.
The test system of the next assay is Candida albicans. The assay can be described thus: Antimicrobial activity against Candida albicans MTCC 3017 incubated for 24 hrs by well diffusion assay. To be noted: MTCC 3017, 24 h.
Assay [3] can be described thus: Antioxidant activity assessed as DPPH radical scavenging activity at 0.5 mM incubated for 40 mins in dark condition.
Assay [4] can be described thus: Antioxidant activity assessed as DPPH radical scavenging activity at 2 mM incubated for 40 mins in dark condition.
Assay [5] can be described thus: Antioxidant activity assessed as DPPH radical scavenging activity at 1 mM incubated for 40 mins in dark condition.

For the compound `CCOc1ccc([C@H]2Nc3c(c4ccccc4oc3=O)[C@@H]3OCCC[C@H]23)cc1`, the MIC against Escherichia coli, with Pseudomonas aeruginosa, against Micrococcus luteus, in the assay with Raoultella planticola, in the assay with Bacillus subtilis and against Staphylococcus aureus [1] was above 100 µg/mL each time. Further, the MIC in the assay with Staphylococcus aureus [2] and in the assay with Candida albicans was above 100 µg/mL in each case.

Consider `Cc1cc(C(C)(C)C)c(O)c(C(C)(C)C)c1`, for which the Activity in assay [3] turned out to be 39.8%; in assay [4], 78.5%; in [5] it was 68.5%.

As for `CC(C)OC(=O)N1c2c(c(=O)oc3ccccc23)N[C@H](c2ccc([N+](=O)[O-])cc2)N1C(=O)OC(C)C`, the MIC against Escherichia coli, against Pseudomonas aeruginosa, with Micrococcus luteus, with Raoultella planticola, against Bacillus subtilis and in the assay with Staphylococcus aureus [1] was above 100 µg/mL each time. Also, the MIC in the assay with Staphylococcus aureus [2] and in the assay on Candida albicans was above 100 µg/mL throughout. For the same compound, the Activity came out at 3.27% in [3], 14.6% in [4] and 7.06% in [5].

Turning to `Cc1c(C)c2c(c(C)c1O)CC[C@@](C)(CCC[C@H](C)CCC[C@H](C)CCCC(C)C)O2`, the Activity in [3] amounted to 47.7%; in [4] it was 86.4%; in assay [5] it was 81.7%.

For `COc1cc(OC)cc([C@@H]2C[C@@H](c3ccc4ccccc4c3)c3c(c(=O)oc4ccccc34)N2)c1`, the minimal inhibitory concentration (MIC) against Escherichia coli, with Pseudomonas aeruginosa, against Micrococcus luteus, with Raoultella planticola, in the assay on Bacillus subtilis and in the assay with Staphylococcus aureus [1] was above 100 µg/mL in each case. Also, the MIC against Staphylococcus aureus [2] and in the assay with Candida albicans was above 100 µg/mL in each case.

For the compound `O=c1oc2ccccc2c2c1N[C@H](c1ccc([N+](=O)[O-])cc1)[C@H]1CCCO[C@@H]21`, the MIC against Escherichia coli, with Pseudomonas aeruginosa, against Micrococcus luteus, in the assay on Raoultella planticola, against Bacillus subtilis and against Staphylococcus aureus [1] was above 100 µg/mL in each case. In addition, the MIC against Staphylococcus aureus [2] and in the assay on Candida albicans was above 100 µg/mL in each case.

`Clc1ccc(COC(Cn2ccnc2)c2ccc(Cl)cc2Cl)c(Cl)c1` (stereo not given) [MICONAZOLE] came in with an MIC in the assay on Candida albicans of 9.37 µg/mL (≈ 22.5 µM).

Turning to `O=c1oc2ccccc2c2c1N[C@H](c1ccccc1)[C@H]1CCCO[C@@H]21`, the MIC against Escherichia coli, in the assay on Pseudomonas aeruginosa, against Micrococcus luteus, in the assay with Raoultella planticola, in the assay with Bacillus subtilis and with Staphylococcus aureus [1] was above 100 µg/mL throughout. In addition, the MIC in the assay on Staphylococcus aureus [2] and against Candida albicans was above 100 µg/mL each time.

As for `CC(C)OC(=O)N1c2c(c(=O)oc3ccccc23)N[C@H](c2ccc(C#N)cc2)N1C(=O)OC(C)C`, the MIC in the assay with Escherichia coli, in the assay on Pseudomonas aeruginosa, with Micrococcus luteus, in the assay on Raoultella planticola, against Bacillus subtilis and in the assay on Staphylococcus aureus [1] was above 100 µg/mL throughout. For the same compound, the MIC with Staphylococcus aureus [2] and in the assay on Candida albicans was above 100 µg/mL each time. The Activity in [4] was 3.14%; in [5] it was 0.88%.

With `O=c1oc2ccccc2c2c1N[C@H](c1ccc(F)cc1)[C@H]1CCCO[C@@H]21`, the MIC in the assay with Escherichia coli, in the assay on Pseudomonas aeruginosa, with Micrococcus luteus, in the assay with Raoultella planticola, against Bacillus subtilis and in the assay with Staphylococcus aureus [1] was above 100 µg/mL throughout. Besides, the MIC against Staphylococcus aureus [2] and against Candida albicans was above 100 µg/mL each time.

Take `CC(C)OC(=O)N1c2c(c(=O)oc3ccccc23)N[C@H](c2ccc(C(F)(F)F)cc2)N1C(=O)OC(C)C`: the minimum inhibitory concentration (MIC) against Escherichia coli, in the assay with Pseudomonas aeruginosa, against Micrococcus luteus, against Raoultella planticola, against Bacillus subtilis and in the assay on Staphylococcus aureus [1] was above 100 µg/mL in each case. The MIC against Staphylococcus aureus [2] and against Candida albicans was above 100 µg/mL in each case. Further, the Activity in assay [4] stood at 6.8%; in [5], 1.06%.

For `CCOC(=O)C1=C(C(=O)OCC)[C@@H](c2cc(OC)ccc2O)Nc2c1c1ccccc1oc2=O`, the MIC in the assay with Escherichia coli, against Pseudomonas aeruginosa, against Micrococcus luteus, against Raoultella planticola, in the assay with Bacillus subtilis and against Staphylococcus aureus [1] was above 100 µg/mL in each case. The MIC against Staphylococcus aureus [2] and in the assay on Candida albicans was above 100 µg/mL in each case. The Activity in assay [3] was 9.58%; in assay [4] it was 32.1%; in assay [5], 20.1%.

As to `CC(C)OC(=O)N1c2c(c(=O)oc3ccccc23)N[C@H](c2ccc(O)c(Cl)c2)N1C(=O)OC(C)C`, the MIC in the assay on Escherichia coli, in the assay on Pseudomonas aeruginosa, against Micrococcus luteus, with Raoultella planticola, with Bacillus subtilis and with Staphylococcus aureus [1] was above 100 µg/mL throughout. Besides, the MIC with Staphylococcus aureus [2] and against Candida albicans was above 100 µg/mL each time. Besides, the Activity in assay [3] came out at 10.8%; in assay [4], 31.1%; in [5], 21%.

On to `O=C(O)c1cn(C2CC2)c2cc(N3CCNCC3)c(F)cc2c1=O` [CIPROFLOXACIN], for which the MIC with Escherichia coli, in the assay with Pseudomonas aeruginosa, against Micrococcus luteus, against Raoultella planticola, in the assay on Bacillus subtilis and against Staphylococcus aureus [1] was 0.58 µg/mL (≈ 1.75 µM) each time. The same compound gave an MIC with Staphylococcus aureus [2] of 0.58 µg/mL (≈ 1.75 µM).

As to `O=c1oc2ccccc2c2c1N[C@H](c1ccc(Cl)cc1)[C@H]1CCCO[C@@H]21`, the MIC against Escherichia coli, with Pseudomonas aeruginosa, against Micrococcus luteus, against Raoultella planticola, with Bacillus subtilis and against Staphylococcus aureus [1] was above 100 µg/mL each time. Moreover, the MIC against Staphylococcus aureus [2] and with Candida albicans was above 100 µg/mL throughout.

In the case of `O=c1oc2ccccc2c2c1N[C@H](c1ccc(Cl)cc1)C[C@H]2c1ccc2ccccc2c1`, the MIC in the assay on Escherichia coli, against Pseudomonas aeruginosa, with Micrococcus luteus, in the assay with Raoultella planticola, with Bacillus subtilis and against Staphylococcus aureus [1] was above 100 µg/mL throughout. In addition, the MIC in the assay with Staphylococcus aureus [2] and against Candida albicans was above 100 µg/mL in each case.

In the case of `CCOC(=O)C1=C(C(=O)OCC)[C@@H](c2cc(O)ccc2O)Nc2c1c1ccccc1oc2=O`, the MIC in the assay with Escherichia coli, against Pseudomonas aeruginosa, against Micrococcus luteus, in the assay on Raoultella planticola, against Bacillus subtilis and against Staphylococcus aureus [1] was above 100 µg/mL each time. For the same compound, the MIC in the assay with Staphylococcus aureus [2] and against Candida albicans was above 100 µg/mL each time. Also, the Activity in assay [3] was found to be 2.43%; in [4], 7.42%; in assay [5] it was 3.88%.

On to `Nc1cc2ccccc2oc1=O`, for which the MIC against Escherichia coli, in the assay on Pseudomonas aeruginosa, against Micrococcus luteus, against Raoultella planticola, in the assay on Bacillus subtilis and against Staphylococcus aureus [1] was above 100 µg/mL each time. Moreover, the MIC with Staphylococcus aureus [2] and in the assay on Candida albicans was above 100 µg/mL in each case. Moreover, the Activity in assay [4] was found to be 6.08%; in assay [5], 2.77%.

As for `CCOC(=O)C1=C(C(=O)OCC)[C@@H](c2ccc(O)c(Cl)c2)Nc2c1c1ccccc1oc2=O`, the MIC with Escherichia coli, against Pseudomonas aeruginosa, in the assay on Micrococcus luteus, in the assay with Raoultella planticola, in the assay with Bacillus subtilis and with Staphylococcus aureus [1] was above 100 µg/mL throughout. For the same compound, the MIC in the assay with Staphylococcus aureus [2] and in the assay with Candida albicans was above 100 µg/mL in each case. For the same compound, the Activity in [3] was 4.84%; in assay [4] it was 11%; in assay [5] it was 5.79%.
